We go through 12 compounds from PubChem BioAssay (NCI).

Some test systems named below: NCI-H522 lung; CAKI-1 renal; PC-3 prostate; HCT-116 colon; HT29 colon; LXFL 529 NSCLC; U251 CNS; DU-145 prostate; DLD-1 colon; KM12 colon.
Holding throughout (test): NCI tumour cell line growth inhibition, 48 h

Where “and” joins values, the source holds several entries; their conditions need not be identical. Equal values may be shown once.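 The compound was tested at five concentrations on cells cultured in 96-well plates, with a 48-hour exposure period. Abbreviation: GI50, concentration required for 50% inhibition of growth. TGI: total growth inhibition.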

In the case of `COc1ccccc1NC(=O)CC(=O)n1nc(C)c(N=Nc2ccccc2Cl)c1C`, the TGI with NCI-H522 lung, in the assay with CAKI-1 renal, with PC-3 prostate, in the assay on HCT-116 colon, in the assay on HT29 colon and in the assay with LXFL 529 NSCLC was > 100 µM each time. The TGI in the assay on U251 CNS is > 44.2 µM; in the assay on DU-145 prostate it was > 100 µM; in the assay on DLD-1 colon it was > 100 µM; in the assay with KM12 colon it was > 100 µM.

Take `COc1cc(/C=C2\NC(=O)C3Cc4c(OC)c(C)c(OC)c(OC)c4C2N3C)c(OC)c(C)c1OC` (stereo unspecified): the TGI in the assay on NCI-H522 lung, in the assay on CAKI-1 renal, in the assay on HCT-116 colon, in the assay on HT29 colon, in the assay with LXFL 529 NSCLC and in the assay on U251 CNS was > 100 µM in each case. Also, the TGI in the assay on DLD-1 colon and in the assay with KM12 colon was > 100 µM in each case.

As to `CCOC(=O)CNC(=O)OCc1ccccc1`, the TGI with NCI-H522 lung, in the assay on CAKI-1 renal, in the assay on HCT-116 colon, with HT29 colon, in the assay with LXFL 529 NSCLC and in the assay with U251 CNS was > 100 µM throughout. The TGI in the assay on DLD-1 colon and in the assay with KM12 colon was > 100 µM each time.

As for `O=[N+]([O-])c1cc(I)cc(/C=N/NS(=O)(=O)c2ccc(Cl)cc2)c1O`, the TGI with NCI-H522 lung was found to be 33.2 µM; with CAKI-1 renal, 54.9 µM; with HCT-116 colon, 41.3 µM; in the assay on HT29 colon it was 48.6 µM; in the assay with LXFL 529 NSCLC, 37.2 µM; in the assay with U251 CNS, 40.3 µM. Further, the results for the TGI with DLD-1 colon and with KM12 colon were 59.4 µM and 34.6 µM, respectively.

Regarding `O=C(C=Nc1ccccc1S)c1ccco1`, the TGI with NCI-H522 lung amounted to 28.8 µM; in the assay on CAKI-1 renal, 33.7 µM; in the assay with HCT-116 colon, 10.4 µM; with HT29 colon, 37.7 µM; in the assay with LXFL 529 NSCLC, 15.9 µM; in the assay with U251 CNS, 18.7 µM. For the same compound, the TGI in the assay on DLD-1 colon is 28.1 µM; with KM12 colon it was 31.3 µM. The GI50 with LXFL 529 NSCLC was 4.57 µM.

In the case of `O=S1(=O)c2cc(S(=O)(=O)n3ccnc3)ccc2NC2=NCCCN21`, the TGI with NCI-H522 lung was 30.9 µM; in the assay on CAKI-1 renal, > 100 µM; in the assay on HCT-116 colon, 85.8 µM; with HT29 colon, 46.3 µM; in the assay with LXFL 529 NSCLC, > 100 µM; with U251 CNS, 41.5 µM. Besides, the TGI in the assay on DLD-1 colon is > 100 µM; in the assay on KM12 colon, 89.5 µM.

As to `CC1OC(CC(=O)O)Cc2c1c(O)c1c(O)cc(-c3cc(=O)c4c(=O)c5c(c(=O)c=4c3=O)CC(CC(=O)O)OC5C)c(O)c1c2O` (stereo unspecified), the GI50 with NCI-H522 lung is 17.8 µM; in the assay on CAKI-1 renal, 23.6 µM; in the assay with HCT-116 colon, 30.4 µM; with HT29 colon, 26.1 µM; in the assay with U251 CNS, 26.1 µM; with DU-145 prostate, 26.2 µM. The GI50 in the assay on KM12 colon is 32.5 µM. Besides, the TGI in the assay with NCI-H522 lung was 18.9 µM and 64.7 µM; with CAKI-1 renal, 87.5 µM and 52.7 µM; in the assay on PC-3 prostate it was 64.3 µM; in the assay with HCT-116 colon, 27.2 µM; in the assay with HT29 colon it was 55.6 µM and 94.7 µM; with LXFL 529 NSCLC, 22.8 µM. Also, the TGI was > 74 µM and 61 µM in the assay on U251 CNS; 96.2 µM in the assay with DU-145 prostate; 26.4 µM with DLD-1 colon; > 100 µM with KM12 colon.

With `N#CC(C(=O)CCC(=O)Nc1cccc(C(F)(F)F)c1)c1ccccc1` (stereo unspecified), the TGI in the assay with NCI-H522 lung, in the assay with CAKI-1 renal, with HCT-116 colon, with HT29 colon, in the assay on LXFL 529 NSCLC and in the assay with U251 CNS was > 100 µM each time. In addition, the TGI with DLD-1 colon and in the assay on KM12 colon was > 100 µM throughout.

On to `Brc1ccc(C=NC23CC4CC(CC(C4)C2)C3)cc1`, for which the TGI in the assay on NCI-H522 lung, with CAKI-1 renal, with HCT-116 colon, in the assay with HT29 colon, in the assay with LXFL 529 NSCLC and in the assay on U251 CNS was > 100 µM throughout. For the same compound, the TGI with DLD-1 colon and with KM12 colon was > 100 µM in each case.

As to `C[N+](C)(C)C1CC([N+](C)(C)C)C2c3ccccc3C21` (stereo unspecified), the TGI in the assay on NCI-H522 lung, in the assay on CAKI-1 renal, in the assay with HCT-116 colon, in the assay on HT29 colon, with LXFL 529 NSCLC and in the assay with U251 CNS was > 100 µM throughout. Also, the TGI in the assay with DLD-1 colon and in the assay on KM12 colon was > 100 µM throughout.

Take `C1C[OH+]CCNCC[OH+]CC[OH+]CCN1.N.[Cl-].[Pt+4]`: the GI50 in the assay with NCI-H522 lung is 14.2 µM; in the assay with CAKI-1 renal, 29 µM; in the assay with HCT-116 colon, 32.9 µM; in the assay on HT29 colon it was 43.7 µM; in the assay with LXFL 529 NSCLC it was > 100 µM; in the assay on U251 CNS, > 100 µM. The results for the GI50 in the assay on DLD-1 colon and with KM12 colon were 46.1 µM and 29.5 µM, respectively. Besides, the TGI is 48.7 µM in the assay with NCI-H522 lung; > 100 µM with CAKI-1 renal; > 100 µM with HCT-116 colon; > 100 µM in the assay with HT29 colon; > 100 µM in the assay with LXFL 529 NSCLC; > 100 µM in the assay with U251 CNS. Besides, the TGI in the assay with DLD-1 colon and in the assay with KM12 colon was > 100 µM each time.

Turning to `O=C1NC2(CCCC2)C2CCCCC12O` (stereo unspecified), the TGI with NCI-H522 lung, in the assay on CAKI-1 renal, in the assay with HCT-116 colon, in the assay on HT29 colon, in the assay on LXFL 529 NSCLC and in the assay on U251 CNS was > 100 µM throughout. Also, the TGI with DLD-1 colon and in the assay with KM12 colon was > 100 µM in each case.
